Values joined by “and” are separate entries in the source; they are usually repeats but may differ in a detail not shown here. Equal entries are not always repeated.
Experiments:
Conditions in all cases: incubation time: 72 h
MDA-MB-453 [1] = test: normalised response (% of control), CellTox Green; higher = less cell death (100 = DMSO, 0 = benzethonium chloride kill control)
Procedure, shortened: (§1)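 Every value is a normalised signal taken at one concentration of a dilution series. Compound was placed in 384-well plates at 5 concentrations in 10-fold steps over a compound-specific 10,000-fold range, and 20 µl of breast cancer cell suspension was seeded onto it. After 72 h, CellTox Green fluorescence (485/520 nm) was measured first and CellTiter-Glo luminescence second, following 10 min at room temperature. Each plate was scaled to 0.1 % DMSO (100) and a positive kill control (0).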

CAL-120 = test: as above
Procedure, shortened: as §1

MDA-MB-231 = test: as above
Procedure, shortened: as §1

Hs578T = test: as above
Procedure, shortened: as §1

HDQ-P1 [2] = test: as above
Procedure, shortened: as §1

MDA-MB-468 = test: as above
Procedure, shortened: as §1

MDA-MB-436 = test: as above
Procedure, shortened: as §1

MFM-223 = test: as above
Procedure, shortened: as §1

DU-4475 [3] = test: as above
Procedure, shortened: as §1

HCC1599 = test: as above
Procedure, shortened: as §1

BT-474 = test: as above
Procedure, shortened: as §1

CAL-85-1 [4] = test: as above
Procedure, shortened: as §1

CAL-148 [5] = test: as above
Procedure, shortened: as §1

CAL-51 [6] = test: as above
Procedure, shortened: as §1

HCC1937 = test: as above
Procedure, shortened: as §1

BT-549 = test: as above
Procedure, shortened: as §1

HCC1143 = test: as above
Procedure, shortened: as §1

MCF-10A = test: as above
Procedure, shortened: as §1

MDA-MB-453 [7] = test: normalised viability (% of control), CellTiter-Blue; higher = more viable cells (about 100 = DMSO control)
Experimental: (§2)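 DSRT, CellTiter-Blue viability, 72 h incubation. Signal is normalised to DMSO and benzethonium chloride controls. Value is the normalised response at dose 7.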

HDQ-P1 [8] = test: as above
Experimental: as §2

DU-4475 [9] = test: as above
Experimental: as §2

CAL-85-1 [10] = test: as above
Experimental: as §2

CAL-148 [11] = test: as above
Experimental: as §2

CAL-51 [12] = test: as above
Experimental: as §2

SMILES | normalised response (MDA-MB-453 [1]) | normalised response (CAL-120) | normalised response (MDA-MB-231) | normalised response (Hs578T) | normalised response (HDQ-P1 [2]) | normalised response (MDA-MB-468) | normalised response (MDA-MB-436) | normalised response (MFM-223) | normalised response (DU-4475 [3]) | normalised response (HCC1599) | normalised response (BT-474) | normalised response (CAL-85-1 [4]) | normalised response (CAL-148 [5]) | normalised response (CAL-51 [6]) | normalised response (HCC1937) | normalised response (BT-549) | normalised response (HCC1143) | normalised response (MCF-10A) | normalised viability (MDA-MB-453 [7]) | normalised viability (HDQ-P1 [8]) | normalised viability (DU-4475 [9]) | normalised viability (CAL-85-1 [10]) | normalised viability (CAL-148 [11]) | normalised viability (CAL-51 [12])
Cn1cc(C2=Nc3cc(NC(=O)C(N)C4CCCCC4)cc4c3C2=CNNC4=O)cn1 (centres undefined) (1000 nM) | 91.8% | 80.1% | 54.1% | -123% | 97.4% | 126% | 85% | 87.6% | 95.2% | 73.3% | 92.3% | 45.8% | 86.4% | 56% | 113% | 95.4% | 4.8% | -64.4% | 36.9% | 67.1% | 72.1% | 64% | 62.4% | 87.8%
COc1cc2c(cc1O)CC[C@@H]1[C@@H]2CC[C@]2(C)[C@@H](O)CC[C@@H]12 [2-methoxyestradiol] (1000 nM) | 108% | 91.8% | 34.1% | 84.6% | 108% | 92.5% | 85.5% | 64.7% | 96.6% | 93.5% | 77.8% | 83.5% | 85.8% | 98.3% | 111% | 96.5% | 99.8% | 98.5% | 53.3% | 83% | 89.5% | 86.8% | 89.7% | 107%
Cc1sc2c(c1C)C(c1ccc(Cl)cc1)=N[C@@H](CC(=O)OC(C)(C)C)c1nnc(C)n1-2 [(+)JQ1] (1000 nM) | 104% | 87.5% | 131% | 98.9% | 83.5% | 85.6% | 66.8% | 98.1% | 88.2% | 95.5% | 94.4% | 64.5% | 67.3% | 90.6% | 59.3% | 97.4% | -3.05% | 108% | 21.9% | 106% | 12.4% | 56.7% | 56.5% | 84.1%
Oc1ncnc2[nH]ncc12 [Allopurinol] (1000 nM) | 63% | 95% |  | 101% | 106% | 80.5% | 107% | 103% | 96.8% | 97% | 100% | 99% | 106% | 118% | 89.9% | 103% |  | 94.7% | 100% | 88% | 109% | 96.3% | 124% | 91.5%
O=C1CN2Cc3c(ccc(Cl)c3Cl)N=C2N1 [Anagrelide] (1000 nM) | 105% | 97.8% | 86.2% | 83.8% |  | 137% | 87.3% | 102% | 97.4% | 94.3% | 97% | 103% | 56.1% | 59.7% | 88.6% | 97% |  | 104% | 103% | 105% | 113% | 86.1% | 104% | 73.6%
O=NN(CCCl)C(=O)NCCCl [Carmustine] (1000 nM) | 103% | 95.8% | 105% | 106% | 99% | 86% | 99.5% | 66.4% | 96.9% | 94.9% | 97.3% | 102% | 98% | 115% | 112% | 96.9% | 105% | 92.1% | 105% | 105% | 102% | 88.4% | 105% | 96.9%
CC1=C2C[C@H]3[C@@H](CC=C4C[C@@H](O)CC[C@@]43C)[C@@H]2CC[C@]12O[C@@H]1C[C@H](C)CN[C@H]1[C@H]2C [Cyclopamine] (1000 nM) | 103% | 101% | 119% | 104% | 96.9% | 78.1% | 99.3% | 75.1% | 101% | 104% | 101% | 101% | 95.1% | 95.5% | 70% | 108% | 100% | 108% | 86.8% | 127% | 121% | 92.2% | 119% | 110%
CC(=O)O[C@@]12CO[C@@H]1C[C@H](O)[C@@]1(C)C(=O)[C@H](O)C3=C(C)[C@@H](OC(=O)[C@H](O)[C@@H](NC(=O)OC(C)(C)C)c4ccccc4)C[C@@](O)([C@@H](OC(=O)c4ccccc4)[C@H]21)C3(C)C [Docetaxel] (100 nM) | 100% | 86.7% | -12.5% | 49.4% | 75.8% | 145% | 69% | 59.5% | 95.2% | 82.8% | 57.1% | 19.7% | 83.2% | 16.6% | 102% | 69.3% | 76% | 34.9% | 26.2% and 23.4% | 34.2% and 38% | 13.8% and 9.08% | 32.9% and 29.5% | 22.7% and 19.8% | 18.2% and 13.8%
CC1(C)CNc2cc(NC(=O)c3cccnc3NCc3ccncc3)ccc21 [Motesanib] (1000 nM) | 101% | 99.5% | 97.7% | 83.6% | 108% | 108% | 79% | 97% | 100% | 97.3% | 98% | 91.8% | 103% | 96.1% |  | 123% | 103% | 95.4% | 75.4% | 78.1% | 99.5% | 79.8% | 90.3% | 105%
CC[C@@H]1C(=O)OC[C@@H]1Cc1cncn1C [Pilocarpine] (4000 nM) | 101% | 99.3% | 97.8% | 70.9% |  | 66.5% | 81.4% | 69.2% | 95.3% | 92.5% | 96% | 95.5% | 73.7% | 104% |  | 112% | 72.1% | 101% | 101% | 121% | 95.5% | 89.5% | 101% | 108%
CC(C)(C)c1cnc(CSc2cnc(NC(=O)C3CCNCC3)s2)o1 [SNS-032] (1000 nM) | 99.2% | 88.6% | -97.4% | 25% | 62.6% | 84% | 102% | 63.5% | 86.1% | 71.2% | 90% | 17.1% | 96.3% | 55.9% | 115% | 80.4% | 86.3% | 24% | 11.2% | 12.6% | 2.63% | 2.84% | 18.8% | 31.5%
Cn1cnc2c(F)c(Nc3ccc(Br)cc3Cl)c(C(=O)NOCCO)cc21 [Selumetinib] (1000 nM) | 104% | 81.4% | 43.8% | 100% | 77.2% | 108% | 80.4% | 93.2% | 60.8% | 89.4% | 96.9% | 77.5% | 99.2% | 103% | 88.9% | 116% | 70.1% | 90.4% | 104% | 75.2% | 1.82% | 64.8% | 92.8% | 91.3%
Nc1nc2[nH]cnc2c(=S)[nH]1 [Thioguanine] (1000 nM) | 106% | 103% | 48.4% | 103% | 109% | 121% | 101% | 92.8% | 104% | 97.8% | 96.4% | 112% | 94% | 102% | 114% | 108% |  | 98.7% | 95.2% | 85.2% | 117% | 79.2% | 93.4% | 108%

— the supplement of paper PMC4862054
